Results: US20070043034A1, “Chlorine Ion Uptake Modulators and Uses Thereof” (priority 2005, published 2007)

Key:
[1] = test system: spontaneous network activity in hippocampal sections; assay: Spontaneous network activity in P4-8 hippocampal sections (whole-cell and extracellular field recordings); format: cell-based, rat
Procedure: In another exemplary in vitro method, simultaneous whole-cell voltage-clamp recordings of CA3 pyramidal cells and extracellular field potential recordings in CA3 pyramidal cell layer were performed to analyze the effects of one of the pharmaceutical compositions of the present invention, bumetanide, on spontaneous network activity in the postnatal (P)4-8 hippocampal sections. Spontaneous neuronal network activity is characterized by large polysynaptic currents mediated by activation of GABAA-receptors and synchronous recurrent population bursts, associated with a barrage of high frequency action potentials from multiple cells (FIG. 1C). […] Synchronous network activity reappeared 10-15 min after removal of bumetanide by washing.
In one exemplary method, experimental procedures were carried out on hippocampal slices of postnatal days 5 (P5) to P12 male Wistar rats. Animals were anaesthetized and decapitated and hippocampal slices were prepared by known methods. […]
(§1) From the example outlined above, extracellular field potentials were recorded and microelectrodes known in the art were used for simultaneous recordings of multiple unit activity (e.g. MUA; 500 Hz high-pass filter), population field activity in EEG band (1-100 Hz), and fast ripple oscillations (200-600 Hz).).

[2] = biological target: T1, NKCCl (Rattus norvegicus, UniProt E9PTX9); assay: Gramicidin perforated patch recording of ECl and Cli in CA1 pyramidal cells of acute hippocampal slices; format: cell-based; conditions: 10 μM bumetanide
T1 construct: gramicidin perforated patch clamped CA1 pyramidal neuron in an acute hippocampal slice from a P5 rat; from tissue; host or cells: acute hippocampal slices of P3-P6 male Sprague-Dawley rats; CA1 pyramidal neurons
T1 sequence (E9PTX9 1-1203): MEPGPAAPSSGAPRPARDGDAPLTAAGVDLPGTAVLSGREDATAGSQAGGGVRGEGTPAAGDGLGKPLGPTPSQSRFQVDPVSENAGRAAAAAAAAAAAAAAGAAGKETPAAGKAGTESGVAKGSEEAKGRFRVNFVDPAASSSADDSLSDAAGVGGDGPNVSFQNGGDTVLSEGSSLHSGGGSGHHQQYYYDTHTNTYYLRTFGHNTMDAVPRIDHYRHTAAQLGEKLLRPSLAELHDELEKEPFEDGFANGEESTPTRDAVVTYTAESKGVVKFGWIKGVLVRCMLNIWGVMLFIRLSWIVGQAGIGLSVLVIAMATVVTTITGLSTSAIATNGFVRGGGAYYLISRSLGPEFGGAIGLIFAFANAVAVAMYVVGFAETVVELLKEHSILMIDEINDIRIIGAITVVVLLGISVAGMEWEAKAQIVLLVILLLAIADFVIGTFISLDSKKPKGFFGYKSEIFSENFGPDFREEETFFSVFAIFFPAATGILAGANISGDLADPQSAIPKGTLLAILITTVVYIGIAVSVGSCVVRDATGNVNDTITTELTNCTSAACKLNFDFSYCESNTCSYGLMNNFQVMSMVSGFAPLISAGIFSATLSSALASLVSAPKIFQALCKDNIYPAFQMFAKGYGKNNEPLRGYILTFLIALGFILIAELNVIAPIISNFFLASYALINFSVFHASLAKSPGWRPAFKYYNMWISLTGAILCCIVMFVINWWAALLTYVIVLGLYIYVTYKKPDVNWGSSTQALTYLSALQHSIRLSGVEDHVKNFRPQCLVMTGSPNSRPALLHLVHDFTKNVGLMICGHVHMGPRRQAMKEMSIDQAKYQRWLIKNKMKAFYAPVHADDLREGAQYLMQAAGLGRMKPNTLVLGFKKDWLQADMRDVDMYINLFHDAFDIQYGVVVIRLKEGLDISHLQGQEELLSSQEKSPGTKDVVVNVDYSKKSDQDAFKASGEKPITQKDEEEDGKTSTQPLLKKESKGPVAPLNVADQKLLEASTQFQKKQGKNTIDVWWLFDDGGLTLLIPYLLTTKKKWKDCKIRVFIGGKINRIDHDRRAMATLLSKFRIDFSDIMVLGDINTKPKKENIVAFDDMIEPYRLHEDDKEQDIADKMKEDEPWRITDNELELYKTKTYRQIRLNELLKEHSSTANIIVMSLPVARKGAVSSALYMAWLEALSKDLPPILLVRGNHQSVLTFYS

[3] = test system: 8.5 mM potassium-induced epileptiform activity in hippocampal slices; assay: 8.5 mM K+ induced epileptiform activity in hippocampal slices in vitro; format: cell-based, rat; conditions: for decrease of averaged power of epileptiform activity: bumetanide 10 μM
Excerpt: In this example, the effects of phenobarbital on recurrent interictal and ictal-like epileptiform activity in the hippocampal slices in vitro from P7-12 rats were studied. Interictal and ictal-like epileptiform activity are typical parameters studied when analyzing seizure activity in control and treated subjects. Phenobarbital exerts its pharmacological effects by allosteric activation of the GABAA receptor, increasing the duration of chloride ion channel opening, without affecting the frequency of opening or channel conductance. Simultaneous multi-site extracellular field potential records were performed in the CA3 pyramidal cell layer. To induce progressive neuronal firing, a bath application of 8.5 mM K+ was applied to the sections that developed to recurrent interictal and ictal-like epileptiform activities (FIG. 2A-2D). […] The power of extracellular field potential during 8.5 mM K+ (potassium) induced epileptiform activity in 0.1-1000 Hz frequency band, that include both gamma and fast ripple oscillations (FIG. 2A-2D).
In one exemplary method, experimental procedures were carried out on hippocampal slices of postnatal days 5 (P5) to P12 male Wistar rats. Animals were anaesthetized and decapitated and hippocampal slices were prepared by known methods. For example, hippocampal transverse slices were cut using Leica VT-100E vibratome (Leica Microsystems Nussloch GmbH, Germany) and kept in oxygenated aCSF at room temperature at least 1 hr before use. Hippocampal slices posterior to the midtemporal (caudal) part of the hippocampus (Paxinos and Watson, 1986) were used in the study.
In one example, electrophysiological recordings are gathered from individual slices and subsequently transferred to a conventional submerged-type chamber and continuously superfused with, for example, oxygenated aCSF. Whole-cell recordings were generated. Patch electrodes were used, made by known methods. For whole-cell recording in voltage-clamp mode pipettes were filled with a buffered solution.
as §1
In one experimental example, bumetanide was tested for suppression of a 8.5 mM potassium-induced epileptiform activity in hippocampal slices from P7-9 and PI0-12 rats. […] Averaged power of epileptiform activity was decreased by 71±2.1% (n=9, p=1.57E-12) in P7-9 rat hippocampal slices and by 41.9±1.5% (n=6, p=2.13E-11) at P10-P12 (FIG. 3C).
In another aspect of this example, pharmaceutical compositions of the present invention may be tested for effects on the GABAA receptor using for example a GABAA-R antagonist before, during or after treatment with the pharmaceutical composition. In one example, GABAA receptor antagonists prevented the effect of bumetanide on power of epileptiform activity in the hippocampal slices from neonatal rats (FIGS. 3B and 3D). […] Here, an inhibition of synchronous network activity by bumetanide treatment in the perinatal hippocampal slices in this in vitro experiment was observed and these affects were partially reversed after treatment with bicuculline.

SMILES: CCCCNc1cc(C(=O)O)cc(S(N)(=O)=O)c1Oc1ccccc1 [bumetanide, 3-(aminosulfonyl)-5-(butylamino)-4-phenoxybenzoic acid]
- time until synchronous network activity reappeared after removal by washing ([1]; after bumetanide 10 uM): 10 to 15 min
- synchronous bursts of action potentials ([1]; bath application 10 uM, P4-8 hippocampal sections, n=10): rapidly depressed
- holding current [2]: no change
- ECl ([2]; P4-6 CA1 pyramidal cells, n=9, control −67.34±3.78 mV): −80.14±4.61 mV
- lowering of Cli ([2]; n=9, P=0.0006): 37±0.05%
- Cli ([2]; n=9, control 12.00±1.47 mM): 7.62 ± 1.14 mM
- decrease of averaged power of epileptiform activity ([3]; P7-9 rat hippocampal slices, n=9): 71±2.1%
- decrease of averaged power of epileptiform activity ([3]; P10-P12 rat hippocampal slices, n=6): 41.9±1.5%
- increase of IED frequency ([3]; bumetanide 10 μM in the presence of bicuculline 10 μM, P7-9 slices, n=6, p=0.008): 22.8 ± 6.4%
- decrease of IED length ([3]; bumetanide 10 μM in the presence of bicuculline 10 μM, P7-9 slices, p=0.8): 2.2±8%
- averaged power of epileptiform discharges ([3]; bumetanide 10 μM in the presence of bicuculline 10 μM, p=0.35): did not change
- effect on epileptiform activity ([3]; hippocampal slices from P7-9 rats, bath application phenobarbital 100 μM (n=6) or bumetanide 10 μM (n=10)): strongly suppressed interictal and ictal-like epileptiform activity
- effect on epileptiform activity ([3]; hippocampal slices from P10-12 rats, bath application phenobarbital 100 μM (n=7) or bumetanide 10 μM (n=6)): depressed ictal-like epileptiform activity
